The values below come from patent publication US20260274833A1 (NiKang Therapeutics, Inc., priority 2022, published 2026).

The target in the test is T1, CDK2 (Homo sapiens, UniProt P24941).
T1 construct: endogenous in cells; host or cells: OVCAR3 cells
Kind of test: Phospho-RB measurement in OVCAR3 cells (HTRF phospho-RB cellular kit). The test is classed as cell-based. As to conditions: inhibition of RB phosphorylation at S807/811 (HTRF, TR-FRET ratio 665/620), 24 h compound treatment, 0.3 to 10,000 nM. An outline of the steps:
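IC50 came from a four-parameter logistic fit of the DMSO-normalized TR-FRET ratio (665/620 nm). That ratio reflects RB phosphorylation at S807/811, read with an HTRF antibody pair 4 h after adding lysate at room temperature.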
In general terms: Time-resolved FRET reads energy transfer from a long-lived donor to a nearby acceptor.

Take `CN1CCN(S(=O)(=O)N2CCC(Nc3nccc(-c4sc(C(C)(C)C)nc4-c4cccc(NS(=O)(=O)N5CCNc6ccccc6C5)c4F)n3)CC2)CC1` [Example 138, N-(3-(2-(tert-butyl)-5-(2-((1-((4-methylpiperazin-1-yl)sulfonyl)piperidin-4-yl)amino)pyrimidin-4-yl)thiazol-4-yl)-2~fluorophenyl)-1,2,3,5-tetrahydro-4H-benzo[e][1,4] diazepine-4-sulfonamide]: the IC50 was determined as 396 nM.
Turning to `CC(C)(C)c1nc(-c2cccc(NS(=O)(=O)N3Cc4cccc(Cc5ccccc5)c4C3)c2F)c(-c2ccnc(NC3CC4(C3)CS(=O)(=O)C4)n2)s1` [Example 232, 4-benzyl-N-(3-(2-(tert-butyl)-5-(2-((2,2-dioxido-2-thiaspiro[3.3]heptan-6-yl)amino)-pyrimidin-4-yl)thiazol-4-yl)-2-fluorophenyl)-isoindoline-2-sulfonamide], the concentration for half-maximal inhibition (IC50) came out at 939 nM.
As for `CC(C)(C)c1nc(-c2cccc(NS(=O)(=O)N3Cc4cccc(Oc5ccccc5)c4C3)c2F)c(-c2ccnc(NC3CC4(C3)CS(=O)(=O)C4)n2)s1` [Example 210, N-(3-(2-(tert-butyl)-5-(2-((2,2-dioxido-2-thiaspiro[3.3]heptan-6-yl)amino)-pyrimidin-4-yl)thiazol-4-yl)-2-fluoro-phenyl)-4-phenoxy-isoindoline-2-sulfonamide], the IC50 was determined as 505 nM.
`N#Cc1ccc2c(c1)N(S(=O)(=O)Nc1cccc(-c3nc(C45CC(C4)C5)sc3-c3ccnc(N[C@H]4[C@@H]5CS(=O)(=O)C[C@@H]54)n3)c1F)CC2` [Example 14, N-(3-(2-(bicyclo [1.1.1]pentan-1-yl)-5-(2-(((1R,5S,6r)-3,3-dioxido-3-thiabicyclo-[3.1.0]-hexan-6-yl)amino)pyrimidin-4-yl)thiazol-4-yl)-2-fluorophenyl)-6-cyanoindoline-1-sulfonamide]: the IC50 worked out at 124 nM.
For the molecule `CC(C)(C)c1nc(-c2cccc(NS(=O)(=O)N3CCNc4ccccc4C3)c2F)c(-c2ccnc(NC3CCN(S(=O)(=O)N4CCNCC4)CC3)n2)s1` [Example 116, N-(3-(2-(tert-butyl)-S-(2-((1-(piperazin-1-ylsulfonyl)piperidin-4-yl)amino)-pyrimidin-4-yl)thiazol-4-yl)-2-fluorophenyl)-1,2,3,5-tetrahydro-4H-benzo[e][1,4] diazepine-4-sulfonamide], the IC50 worked out at 390 nM.
With `Cn1ncc2c1CN(S(=O)(=O)Nc1cccc(-c3nc(C(C)(C)C)sc3-c3ccnc(Nc4ccc(N5CCNCC5)cc4)n3)c1F)C2` [Example 251], the IC50 came out at 1530 nM.
With `CNS(=O)(=O)N1CCC(Nc2nccc(-c3sc(C(C)(C)C)nc3-c3cccc(NS(=O)(=O)N4CCc5ccc(C#N)cc54)c3F)n2)CC1` [Example 183, N-(3-(2-(tert-butyl)-5-(2-((1-(N-methyl-sulfamoyl)piperidin-4-yl)amino)-pyrimidin-4-yl)thiazol-4-yl)-2~fluoro-phenyl)-6-cyano-indoline-1-sulfonamide] the figure was 133 nM.
Then `C[C@@H]1Cc2ccccc2N1S(=O)(=O)Nc1cccc(-c2nc(C(C)(C)C)sc2-c2ccnc(NC3CCN(S(=O)(=O)N4CCNCC4)CC3)n2)c1F` [Example 140, (R)-N-(3-(2-(tert-butyl)-5-(2-((1-(piperazin-1-ylsulfonyl)piperidin-4-yl)amino)pyrimidin-4-yl)thiazol-4-yl)-2-fluorophenyl)-2-methyl-indoline-1-sulfonamide], with 622 nM.
As to `COc1cccc2c1CN(S(=O)(=O)Nc1cccc(-c3nc(C(C)(C)C)sc3-c3ccnc(N[C@H]4[C@@H]5CS(=O)(=O)C[C@@H]54)n3)c1F)C2` [Example 221, N-(3-(2-(tert-butyl)-5-(2-(((1R,5S,6r)-3,3-dioxido-3-thiabicyclo [3.1.0]hexan-6-yl)amino)pyrimidin-4-yl)thiazol-4-yl)-2-fluorophenyl)-4-methoxyisoindoline-2-sulfonamide], the IC50 worked out at 35.5 nM.
As for `CN(C)C(=O)c1ccc2c(c1)CN(S(=O)(=O)Nc1cccc(-c3nc(C(C)(C)C)sc3-c3ccnc(NC4CCN(S(C)(=O)=O)CC4)n3)c1F)C2` [Example 161, 2-(N-(3-(2-(tert-butyl)-5-(2-((1-(methyl-sulfonyl)piperidin-4-yl)amino)pyrimidin-4~yl)thiazol~4-yl)-2-fluorophenyl)-sulfamoyl)-N,N-dimethyl-isoindoline-5-carboxamide], the IC50 worked out at 1800 nM.
With `CN(C)Cc1ccc2c(c1)N(S(=O)(=O)Nc1cccc(-c3nc(C(C)(C)C)sc3-c3ccnc(NC4CCN(S(C)(=O)=O)CC4)n3)c1F)CC2` [Example 142, N-(3-(2-(tert-butyl)-5-(2-((1-(methylsulfonyl)-piperidin-4-yl)amino)-pyrimidin-4-yl)thiazol-4-yl)-2-fluoro-phenyl)-6-((dimethylamino)-methyl)-indoline-1-sulfonamide] the figure was 341 nM; with `O=S1(=O)CC2(CC(Nc3nccc(-c4sc(N5C6CCC5CN(CC(F)(F)F)C6)nc4-c4cccc(NS(=O)(=O)N5Cc6cccc(C(F)F)c6C5)c4F)n3)C2)C1` [Example 49], 137 nM; with `CN(C)CCN(C)S(=O)(=O)N1CCC(Nc2nccc(-c3sc(C(C)(C)C)nc3-c3cccc(NS(=O)(=O)N(C)C)c3F)n2)CC1` [Example 135, 4-((4-(2-(tert-butyl)-4-(3-((N,N-dimethyl-sulfamoyl)amino)-2-fluoro-phenyl)thiazol-5-yl)pyrimidin-2-yl)amino)-N-(2-(dimethyl-amino)ethyl)-N-methylpiperidine-1-sulfonamide], 474 nM.
Then `N#Cc1ccc2c(c1)N(S(=O)(=O)Nc1cccc(-c3nc(C45CC(C4)C5)sc3-c3ccnc(NC4CCN(S(=O)(=O)N5CCNCC5)CC4)n3)c1F)CC2` [Example 263, N-(3-(2-(bicyclo [1.1.1]pentan-1-yl)-5-(2-((1-(piperazin-1-ylsulfonyl)piperidin-4-yl)amino)-pyrimidin-4-yl)thiazol-4-yl)-2-fluorophenyl)-6-cyanoindoline-1-sulfonamide], with 118 nM; and `CN1CCN(S(=O)(=O)Nc2cccc(-c3nc(C45CC(C4)C5)sc3-c3ccnc(NC4CC5(C4)CS(=O)(=O)C5)n3)c2F)Cc2ccccc21` [Example 275, N-(3-(2-(bicyclo [1.1.1]pentan-1-yl)-5-(2-((2,2-dioxido-2-thiaspiro[3.3]heptan-6-yl)amino)-pyrimidin-4-yl)thiazol-4-yl)-2-fluorophenyl)-1-methyl-1,2,3,5-tetrahydro-4H-benzo[e][1,4]-diazepine-4-sulfonamide], with 339 nM; and `CC(C)(C)c1nc(-c2cccc(NS(=O)(=O)N3Cc4ccccc4C3)c2F)c(-c2ccnc(NC3CCN(S(N)(=O)=O)CC3)n2)s1` [Example 76, N-(3-(2-(tert-butyl)-5-(2-((1-sulfamoyl-piperidin-4-yl)amino)pyrimidin-4-yl)thiazol-4-yl)-2-fluorophenyl)-isoindoline-2-sulfonamide], with 65 nM.
Then `O=S1(=O)CC2(CC(Nc3nccc(-c4sc(C56CC(C(F)(F)F)(C5)C6)nc4-c4cccc(NS(=O)(=O)N5CCc6ccccc65)c4F)n3)C2)C1` [Example 281], with 739 nM; and `CNc1cccc2c1N(S(=O)(=O)Nc1cccc(-c3nc(C(C)(C)C)sc3-c3ccnc(NC4CCN(S(C)(=O)=O)CC4)n3)c1F)CC2` [Example 258, N-(3-(2-(tert-butyl)-5-(2-((1-(methylsulfonyl)-piperidin-4-yl)amino)-pyrimidin-4-yl)thiazol-4-yl)-2-fluoro-phenyl)-7-(methylamino) indoline-1-sulfonamide], with 435 nM.
For `CN(C)S(=O)(=O)Nc1cccc(-c2nc(C(C)(C)C)sc2-c2ccnc(NC3CCN(S(=O)(=O)N4CCNCC4)CC3)n2)c1F` [Example 96, N-(3-(2-(tert-butyl)-5-(2-((1-(piperazin-1-ylsulfonyl)piperidin-4-yl)amino)-pyrimidin-4-yl)thiazol-4-yl)-2-fluorophenyl) dimethylamine-sulfonamide], the half-inhibitory concentration (IC50) stood at 454 nM.
In the case of `CC(C)(C)c1nc(-c2cccc(NS(=O)(=O)N3CCC4(CCCC4)C3)c2F)c(-c2ccnc(NC3CCN(S(C)(=O)=O)CC3)n2)s1` [Example 169, N-(3-(2-(tert-butyl)-5-(2-((1-(methylsulfonyl)-piperidin-4-yl)amino)-pyrimidin-4-yl)thiazol-4-yl)-2-fluoro-phenyl)-2-azaspiro [4.4]nonane-2-sulfonamide], the half-inhibitory concentration (IC50) came to 2250 nM.
In the case of `CC(C)(C)c1nc(-c2cccc(NS(=O)(=O)N3CCc4ccc(-c5ccccc5)cc43)c2F)c(-c2ccnc(NC3CC4(C3)CS(=O)(=O)C4)n2)s1` [Example 217, N-(3-(2-(tert-butyl)-5-(2-((2,2-dioxido-2-thiaspiro[3.3]heptan-6-yl)amino)-pyrimidin-4-yl)thiazol-4-yl)-2-fluoro-phenyl)-6-phenyl-indoline-1-sulfonamide], the concentration for half-maximal inhibition (IC50) came to 934 nM.
Then `CC(C)(c1nc(-c2cccc(NS(=O)(=O)N3CCc4ccc(Cl)cc43)c2F)c(-c2ccnc(N[C@H]3CC[C@H](S(C)(=O)=O)CC3)n2)s1)C(F)(F)F` [Example 289, 6-chloro-N-(2-fluoro-3-(5-(2-(((1r,4r)-4-(methylsulfonyl)cyclohexyl)amino)pyrimidin-4-yl)-2-(1,1,1-trifluoro-2-methyl-propan-2-yl)thiazol-4-yl)phenyl)-indoline-1-sulfonamide], with 110 nM.
As for `CN(C)CCN(C)S(=O)(=O)N1CCC(Nc2nccc(-c3sc(C(C)(C)C)nc3-c3cccc(NS(=O)(=O)N4CCc5ccc(C#N)cc54)c3F)n2)CC1` [Example 122, N-(3-(2-(tert-butyl)-5-(2-((1-(N-(2-(dimethylamino)ethyl)-N-methylsulfamoyl)-piperidin-4-yl)amino)-pyrimidin-4-yl)thiazol-4-yl)-2-fluoro-phenyl)-6-cyanoindoline-1-sulfonamide], the IC50 turned out to be 54 nM.

The IC50 is the midpoint of a concentration-inhibition curve.
